8 molecules from patent US11021493B2, “1,4-thiazine dioxide and 1,2,4-thiadiazine dioxide derivatives as beta-secretase inhibitors and methods of use” (AMGEN INC., priority 2016, dated 2021) can be followed below.

In one assay the target is Cathepsin D (CatD) (Homo sapiens (Human), UniProt P07339). As to the kind of experiment: In vitro enzymatic Cathepsin D (CatD) FRET assay. It counts as biochemical. As to conditions: read-out: Cat D Enzyme IC50.
Assay [1] concerns the target T1, BACE1 (Homo sapiens (Human), UniProt P56817). Briefly: In vitro BACE1 cell-based assay (Aβ40 in conditioned medium of cells stably expressing APP, HTRF). As to conditions: Aβ40 in conditioned media after 24 h incubation.
Target sequence in this assay (P56817 46-501, species assumed): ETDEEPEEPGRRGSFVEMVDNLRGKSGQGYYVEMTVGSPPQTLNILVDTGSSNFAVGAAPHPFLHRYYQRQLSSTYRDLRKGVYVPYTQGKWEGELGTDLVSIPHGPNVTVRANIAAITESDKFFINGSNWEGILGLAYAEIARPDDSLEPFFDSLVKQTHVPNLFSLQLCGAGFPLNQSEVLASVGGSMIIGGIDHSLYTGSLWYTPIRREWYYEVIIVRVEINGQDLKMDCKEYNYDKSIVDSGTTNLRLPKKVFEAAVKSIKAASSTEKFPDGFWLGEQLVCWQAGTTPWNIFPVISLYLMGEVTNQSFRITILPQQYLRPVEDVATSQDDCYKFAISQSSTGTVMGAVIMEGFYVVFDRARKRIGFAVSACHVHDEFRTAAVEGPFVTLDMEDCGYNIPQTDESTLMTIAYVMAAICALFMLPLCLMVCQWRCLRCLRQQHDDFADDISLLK
The target in assay [2] is T1, BACE1. As to the kind of experiment: In vitro enzymatic BACE1 FRET assay. The class given is biochemical. As to conditions: read-out: BACE1 Enzyme IC50.
Target sequence in this assay (P56817 46-501): as the sequence (P56817 46-501, species assumed) above
The next assay deals with human recombinant BACE2 (Homo sapiens (Human), UniProt Q9Y5Z0). As to the kind of experiment: In vitro enzymatic BACE2 FRET assay. It counts as biochemical. The settings on record: read-out: BACE2 Enzyme IC50.
Sequence of human recombinant BACE2 (Q9Y5Z0 63-518): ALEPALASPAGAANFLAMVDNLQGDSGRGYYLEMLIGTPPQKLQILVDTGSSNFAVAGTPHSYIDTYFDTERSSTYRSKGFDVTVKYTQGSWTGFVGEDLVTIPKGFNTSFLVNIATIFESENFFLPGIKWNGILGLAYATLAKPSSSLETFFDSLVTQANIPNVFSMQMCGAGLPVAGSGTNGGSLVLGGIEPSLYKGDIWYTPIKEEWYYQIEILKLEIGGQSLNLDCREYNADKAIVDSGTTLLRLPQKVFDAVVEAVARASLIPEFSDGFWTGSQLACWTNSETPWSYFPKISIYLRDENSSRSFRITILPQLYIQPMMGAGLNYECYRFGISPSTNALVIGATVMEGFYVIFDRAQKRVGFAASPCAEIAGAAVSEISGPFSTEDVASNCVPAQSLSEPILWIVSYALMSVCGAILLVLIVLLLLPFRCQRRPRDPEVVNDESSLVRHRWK

Bounds are passed on as bounds.

Sequence of Cathepsin D (CatD) (P07339 65-412, species assumed): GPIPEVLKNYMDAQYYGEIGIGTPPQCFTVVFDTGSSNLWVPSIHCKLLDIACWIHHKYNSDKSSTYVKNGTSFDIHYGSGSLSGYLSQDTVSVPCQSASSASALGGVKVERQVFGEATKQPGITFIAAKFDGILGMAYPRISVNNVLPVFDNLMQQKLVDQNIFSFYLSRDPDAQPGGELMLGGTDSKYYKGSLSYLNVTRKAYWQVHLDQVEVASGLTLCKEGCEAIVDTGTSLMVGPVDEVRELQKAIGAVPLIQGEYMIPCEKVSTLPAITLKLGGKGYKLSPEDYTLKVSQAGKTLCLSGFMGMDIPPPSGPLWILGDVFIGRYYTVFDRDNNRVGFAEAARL

As to `CN1C(N)=N[C@](C)(c2cc(/C=C(\F)c3ccc(C#N)s3)ccc2F)CS1(=O)=O` [Example 256, 5-((Z)-2-(3-((5R)-3-amino-2,5-dimethyl-1,1-dioxido-5,6-dihydro-2H-1,2,4-thiadiazin-5-yl)-4-fluorophenyl)-1-fluoroethenyl)-2-thiophenecarbonitrile], the concentration for half-maximal inhibition (IC50) on Cathepsin D (CatD) was determined as 15400 nM; at BACE1 [1] it was 99 nM; on BACE1 [2] it was 35 nM; on human recombinant BACE2, 14 nM.
The corresponding values for `CC1(C)C(N)=N[C@](C)(c2cc(/C=C(\F)c3cnc(OCC(F)(F)F)cn3)ccc2F)CS1(=O)=O` [Example 124, (R,Z)-5-amino-3-(2-fluoro-5-(2-fluoro-2-(5-(2,2,2-trifluoroethoxy)pyrazin-2-yl)vinyl)phenyl)-3,6,6-trimethyl-3,6-dihydro-2H-1,4-thiazine 1,1-dioxide] are 218000 nM, 134 nM, 39 nM and 161 nM.
As to `C#CCOc1cnc(/C(F)=C/c2ccc(F)c([C@]3(CF)CS(=O)(=O)C(C)(C)C(N)=N3)c2)cn1` [Example 190, (S,Z)-5-amino-3-(2-fluoro-5-(2-fluoro-2-(5-(prop-2-yn-1-yloxy)pyrazin-2-yl)vinyl)phenyl)-3-(fluoromethyl)-6,6-dimethyl-3,6-dihydro-2H-1,4-thiazine 1,1-dioxide], the IC50 at Cathepsin D (CatD) came to 104000 nM; at BACE1 [1], 74 nM; at BACE1 [2], 6 nM; on human recombinant BACE2 it was 274 nM.
Turning to `CC1(C)C(N)=N[C@](C)(c2cc(/C=C(\F)c3ncc(C(F)(F)F)cc3Cl)ccc2F)CS1(=O)=O` [Example 264, (R,Z)-5-amino-3-(5-(2-(3-chloro-5-(trifluoromethyl)pyridin-2-yl)-2-fluorovinyl)-2-fluorophenyl)-3,6,6-trimethyl-3,6-dihydro-2H-1,4-thiazine 1,1-dioxide], the IC50 came out at 117000 nM on Cathepsin D (CatD), 75 nM on BACE1 [1], 10 nM at BACE1 [2] and 38 nM at human recombinant BACE2.
`CN1C(N)=N[C@](C)(c2cc(/C=C(\F)c3cnc(C#N)cn3)ccc2F)C2(CC2)S1(=O)=O` [Example 147, (R,Z)-5-(2-(3-(6-amino-5,8-dimethyl-4,4-dioxido-4-thia-5,7-diazaspiro[2.5]oct-6-en-8-yl)-4-fluorophenyl)-1-fluorovinyl)pyrazine-2-carbonitrile]: the IC50 on Cathepsin D (CatD) came to 41100 nM; against BACE1 [1], 15 nM; at BACE1 [2], 6 nM; at human recombinant BACE2, 184 nM.
For `C[C@]1(c2cc(/C=C(\F)c3cnc(OCC4CC4)cn3)ccc2F)N=C(N)[C@@]2(CF)CC[C@@H]1S2(=O)=O` [Example 118, (1R,4R,5S)-2-amino-4-(5-((Z)-2-(5-(cyclopropylmethoxy)pyrazin-2-yl)-2-fluorovinyl)-2-fluorophenyl)-1-(fluoromethyl)-4-methyl-8-thia-3-azabicyclo[3.2.1]oct-2-ene 8,8-dioxide], in that order: more than 400000 nM, 706 nM, 35 nM and 124 nM.
Consider `Cc1noc(COc2cnc(/C(F)=C/c3ccc(F)c([C@@]4(C)N=C(N)N(C)S(=O)(=O)C45CC5)c3)cn2)n1` [Example 161, (8R)-8-(2-fluoro-5-((Z)-2-fluoro-2-(5-((3-methyl-1,2,4-oxadiazol-5-yl)methoxy)-2-pyrazinyl)ethenyl)phenyl)-5,8-dimethyl-4-thia-5,7-diazaspiro[2.5]oct-6-en-6-amine 4,4-dioxide], for which the IC50 came to 59600 nM at Cathepsin D (CatD), 48 nM on BACE1 [1], 80 nM on BACE1 [2] and 2630 nM on human recombinant BACE2.
Regarding `CN1C(N)=N[C@](C)(c2cc(/C=C(\F)c3ccc(C#N)cn3)ccc2F)CS1(=O)=O` [Example 106, (R,Z)-6-(2-(3-(3-amino-2,5-dimethyl-1,1-dioxido-5,6-dihydro-2H-1,2,4-thiadiazin-5-yl)-4-fluorophenyl)-1-fluorovinyl)nicotinonitrile], the IC50 on Cathepsin D (CatD) worked out at 182000 nM; against BACE1 [1], 2 nM; at BACE1 [2], 1 nM; at human recombinant BACE2 it was 31 nM.
